Laboratory results reported in publication PMC2192259 (The Journal of Experimental Medicine, 1995).
“Also recorded” adds a separate entry of the source.

Test system: 20S proteasome
Assay: 20S proteasome from BALB.SV cells in assay buffer
Details: 37C, up to 24 h

## MDIGAYPHFMPTNLAGDPY
  fragment found: YPHFMPTNL, major; also recorded: YPH- FMPTNL(ox)
